Where two headings read alike, the source gives them in different places.
Tests used:
9L gliosarcoma = system: 9L gliosarcoma
From the text: 88 rats were intracranially implanted on Day 0 with 9L gliosarcoma.

rodent 9L glioma = assay: Inhibition of tumor proliferation, 9L cells counted after 5 days; assay type: cell-based; conditions: 120 h, read-out: growth inhibition
Procedure: The 9L gliosarcoma cell line was obtained from Dr. M. Barker at the University of California at San Francisco Brain Tumor Research Center (San Francisco, Calif., USA). The cells were maintained in tissue culture in Dulbecco's minimum essential medium with 10% fetal bovine serum, streptomycin (80.5 units/ml), penicillin (base; 80.5 units/ml), and 1% L-glutamine (all products from GIBCO laboratories, Grand Island, N.Y., USA). Cells were maintained in a humidified atmosphere of 5% CO2 at 37° C. The cells were grown to confluence, detached with 0.25% trypsin in Dulbecco's phosphate-buffered saline, and resuspended in medium.
Inhibition of tumor proliferation was tested against the rodent 9L glioma. […] The data were analyzed using the two-tailed Student's t-test.

CO[C@H]1C[C@@H]2CC[C@@H](C)[C@@](O)(O2)C(=O)C(=O)N2CCCC[C@H]2C(=O)O[C@H]([C@H](C)C[C@@H]2CC[C@@H](O)[C@H](OC)C2)CC(=O)[C@H](C)/C=C(\C)[C@@H](O)[C@@H](OC)C(=O)[C@H](C)C[C@H](C)/C=C/C=C/C=C/1C [Rapamycin, rapamycin]
toxicity (9L gliosarcoma; rat, in vivo, ip, 2 mg/kg): none of the rats that received systemic injections of rapamycin showed overt signs of toxicity | % Survival (9L gliosarcoma; treated Day 0, at Day 0): 100% | % Survival (9L gliosarcoma; treated Day 0, at Day 12, 1st line): 100% | % Survival (9L gliosarcoma; treated Day 0, at Day 12, 2nd line): 100% | % Survival (9L gliosarcoma; treated Day 0, at Day 13, 1st line): 100% | % Survival (9L gliosarcoma; treated Day 0, at Day 13, 2nd line): 100% | % Survival (9L gliosarcoma; treated Day 0, at Day 14, 1st line): 100% | % Survival (9L gliosarcoma; treated Day 0, at Day 14, 2nd line): 100% | % Survival (9L gliosarcoma; treated Day 0, at Day 15, 1st line): 100% | % Survival (9L gliosarcoma; treated Day 0, at Day 15, 2nd line): 100% | % Survival (9L gliosarcoma; treated Day 0, at Day 16, 1st line): 100% | % Survival (9L gliosarcoma; treated Day 0, at Day 16, 2nd line): 100% | % Survival (9L gliosarcoma; treated Day 0, at Day 17, 1st line): 100% | % Survival (9L gliosarcoma; treated Day 0, at Day 17, 2nd line): 100% | % Survival (9L gliosarcoma; treated Day 0, at Day 18, 1st line): 100% | % Survival (9L gliosarcoma; treated Day 0, at Day 18, 2nd line): 100% | % Survival (9L gliosarcoma; treated Day 0, at Day 19, 1st line): 100% | % Survival (9L gliosarcoma; treated Day 0, at Day 19, 2nd line): 100% | % Survival (9L gliosarcoma; treated Day 0, at Day 20, 1st line): 100% | % Survival (9L gliosarcoma; treated Day 0, at Day 20, 2nd line): 100% | % Survival (9L gliosarcoma; treated Day 0, at Day 21, 1st line): 100% | % Survival (9L gliosarcoma; treated Day 0, at Day 21, 2nd line): 100% | % Survival (9L gliosarcoma; treated Day 0, at Day 22, 1st line): 100% | % Survival (9L gliosarcoma; treated Day 0, at Day 22, 2nd line): 100% | % Survival (9L gliosarcoma; treated Day 0, at Day 23, 1st line): 100% | % Survival (9L gliosarcoma; treated Day 0, at Day 23, 2nd line): 100% | % Survival (9L gliosarcoma; treated Day 0, at Day 24, 1st line): 100% | % Survival (9L gliosarcoma; treated Day 0, at Day 24, 2nd line): 100% | % Survival (9L gliosarcoma; treated Day 0, at Day 25, 1st line): 100% | % Survival (9L gliosarcoma; treated Day 0, at Day 25, 2nd line): 75% | % Survival (9L gliosarcoma; treated Day 0, at Day 26, 1st line): 75% | % Survival (9L gliosarcoma; treated Day 0, at Day 26, 2nd line): 75% | % Survival (9L gliosarcoma; treated Day 0, at Day 27, 1st line): 75% | % Survival (9L gliosarcoma; treated Day 0, at Day 27, 2nd line): 75% | % Survival (9L gliosarcoma; treated Day 0, at Day 28, 1st line): 75% | % Survival (9L gliosarcoma; treated Day 0, at Day 28, 2nd line): 50% | % Survival (9L gliosarcoma; treated Day 0, at Day 29, 1st line): 50% | % Survival (9L gliosarcoma; treated Day 0, at Day 29, 2nd line): 50% | % Survival (9L gliosarcoma; treated Day 0, at Day 30, 1st line): 50% | % Survival (9L gliosarcoma; treated Day 0, at Day 30, 2nd line): 37.5% | % Survival (9L gliosarcoma; treated Day 0, at Day 31, 1st line): 37.5% | % Survival (9L gliosarcoma; treated Day 0, at Day 31, 2nd line): 37.5% | % Survival (9L gliosarcoma; treated Day 0, at Day 32, 1st line): 37.5% | % Survival (9L gliosarcoma; treated Day 0, at Day 32, 2nd line): 37.5% | % Survival (9L gliosarcoma; treated Day 0, at Day 33, 1st line): 37.5% | % Survival (9L gliosarcoma; treated Day 0, at Day 33, 2nd line): 37.5% | % Survival (9L gliosarcoma; treated Day 0, at Day 35, 1st line): 37.5% | % Survival (9L gliosarcoma; treated Day 0, at Day 35, 2nd line): 25% | % Survival (9L gliosarcoma; treated Day 0, at Day 40, 1st line): 25% | % Survival (9L gliosarcoma; treated Day 0, at Day 41, 2nd line): 0% | % Survival (9L gliosarcoma; treated Day 5, at Day 0): 100% | % Survival (9L gliosarcoma; treated Day 5, at Day 12, 1st line): 100% | % Survival (9L gliosarcoma; treated Day 5, at Day 12, 2nd line): 100% | % Survival (9L gliosarcoma; treated Day 5, at Day 13, 1st line): 100% | % Survival (9L gliosarcoma; treated Day 5, at Day 13, 2nd line): 100% | % Survival (9L gliosarcoma; treated Day 5, at Day 14, 1st line): 100% | % Survival (9L gliosarcoma; treated Day 5, at Day 14, 2nd line): 100% | % Survival (9L gliosarcoma; treated Day 5, at Day 15, 1st line): 100% | % Survival (9L gliosarcoma; treated Day 5, at Day 15, 2nd line): 100% | % Survival (9L gliosarcoma; treated Day 5, at Day 16, 1st line): 100% | % Survival (9L gliosarcoma; treated Day 5, at Day 16, 2nd line): 100% | % Survival (9L gliosarcoma; treated Day 5, at Day 17, 1st line): 100% | % Survival (9L gliosarcoma; treated Day 5, at Day 17, 2nd line): 100% | % Survival (9L gliosarcoma; treated Day 5, at Day 18, 1st line): 100% | % Survival (9L gliosarcoma; treated Day 5, at Day 18, 2nd line): 100% | % Survival (9L gliosarcoma; treated Day 5, at Day 19, 1st line): 100% | % Survival (9L gliosarcoma; treated Day 5, at Day 19, 2nd line): 100% | % Survival (9L gliosarcoma; treated Day 5, at Day 20, 1st line): 100% | % Survival (9L gliosarcoma; treated Day 5, at Day 20, 2nd line): 100% | % Survival (9L gliosarcoma; treated Day 5, at Day 21, 1st line): 100% | % Survival (9L gliosarcoma; treated Day 5, at Day 21, 2nd line): 100% | % Survival (9L gliosarcoma; treated Day 5, at Day 22, 1st line): 100% | % Survival (9L gliosarcoma; treated Day 5, at Day 22, 2nd line): 100% | % Survival (9L gliosarcoma; treated Day 5, at Day 23, 1st line): 100% | % Survival (9L gliosarcoma; treated Day 5, at Day 23, 2nd line): 100% | % Survival (9L gliosarcoma; treated Day 5, at Day 24, 1st line): 100% | % Survival (9L gliosarcoma; treated Day 5, at Day 24, 2nd line): 100% | % Survival (9L gliosarcoma; treated Day 5, at Day 25, 1st line): 100% | % Survival (9L gliosarcoma; treated Day 5, at Day 26, 2nd line): 75% | % Survival (9L gliosarcoma; treated Day 5, at Day 27, 1st line): 75% | % Survival (9L gliosarcoma; treated Day 5, at Day 27, 2nd line): 62.5% | % Survival (9L gliosarcoma; treated Day 5, at Day 28, 1st line): 62.5% | % Survival (9L gliosarcoma; treated Day 5, at Day 28, 2nd line): 50% | % Survival (9L gliosarcoma; treated Day 5, at Day 29, 1st line): 50% | % Survival (9L gliosarcoma; treated Day 5, at Day 29, 2nd line): 50% | % Survival (9L gliosarcoma; treated Day 5, at Day 30, 1st line): 50% | % Survival (9L gliosarcoma; treated Day 5, at Day 30, 2nd line): 50% | % Survival (9L gliosarcoma; treated Day 5, at Day 31, 1st line): 50% | % Survival (9L gliosarcoma; treated Day 5, at Day 31, 2nd line): 50% | % Survival (9L gliosarcoma; treated Day 5, at Day 32, 1st line): 50% | % Survival (9L gliosarcoma; treated Day 5, at Day 32, 2nd line): 37.5% | % Survival (9L gliosarcoma; treated Day 5, at Day 33, 1st line): 37.5% | % Survival (9L gliosarcoma; treated Day 5, at Day 33, 2nd line): 37.5% | % Survival (9L gliosarcoma; treated Day 5, at Day 35, 1st line): 37.5% | % Survival (9L gliosarcoma; treated Day 5, at Day 35, 2nd line): 37.5% | % Survival (9L gliosarcoma; treated Day 5, at Day 40, 1st line): 37.5% | % Survival (9L gliosarcoma; treated Day 5, at Day 40, 2nd line): 37.5% | % Survival (9L gliosarcoma; treated Day 5, at Day 41, 1st line): 37.5% | % Survival (9L gliosarcoma; treated Day 5, at Day 41, 2nd line): 0% | Statistical Significance (survival) vs Day 0-0.2% (9L gliosarcoma; treatment Day 0): 0.4226 | Statistical Significance (survival) vs Day 0-2.2% (9L gliosarcoma; treatment Day 0): 0.2237 | Statistical Significance (survival) vs Day 0-28% (9L gliosarcoma; treatment Day 0): 0.7869 | Statistical Significance (survival) vs Day 0-Placebo (9L gliosarcoma; treatment Day 0): 0.0001 | Statistical Significance (survival) vs Day 5-0.2% (9L gliosarcoma; treatment Day 0): 0.0002 | Statistical Significance (survival) vs Day 5-2.2% (9L gliosarcoma; treatment Day 0): 0.0008 | Statistical Significance (survival) vs Day 5-Placebo (9L gliosarcoma; treatment Day 0): 0.0001 | Statistical Significance (survival) vs Day 5-Systemic (9L gliosarcoma; treatment Day 0): 0.5157 | Statistical Significance (survival) vs Day 0-0.2% (9L gliosarcoma; treatment Day 5): 0.2137 | Statistical Significance (survival) vs Day 0-28% (9L gliosarcoma; treatment Day 5): 0.9992 | Statistical Significance (survival) vs Day 0-Placebo (9L gliosarcoma; treatment Day 5): 0.0001 | Statistical Significance (survival) vs Day 0-Systemic (9L gliosarcoma; treatment Day 5): 0.5157 | Statistical Significance (survival) vs Day 5-0.2% (9L gliosarcoma; treatment Day 5): 0.0001 | Statistical Significance (survival) vs Day 5-2.2% (9L gliosarcoma; treatment Day 5): 0.003 | Statistical Significance (survival) vs Day 5-28% (9L gliosarcoma; treatment Day 5): 0.222 | Statistical Significance (survival) vs Day 5-Placebo (9L gliosarcoma; treatment Day 5): 0.0001 | Mean Survival (9L gliosarcoma; treatment initiated 5 days after tumor implantation): 29 days | Mean Survival (9L gliosarcoma; treatment initiated concurrently with tumor implantation (Day 0)): 28 days | inhibition at 0.01 µg/mL (rodent 9L glioma; 0.01 microgram/ml): 34% | inhibition at 10 µg/mL (rodent 9L glioma; 10 microgram/ml): 62%

Reference: patent publication US20090274764A1, “Hollow Foam Beads for Treatment of Glioblastoma” (priority 2008, published 2009)
